{"source": "patent EP1101499A2", "about": "“Diagnostic agents for pancreatic exocrine function” (Tokyo Gas Company Limited, priority 1999, dated 2001)", "key": {"[1]": {"tested_on": "pancreatic exocrine function", "assay": "13C-breath test after oral administration to chronic pancreatitis (oleic acid model) and control/normal rats", "assay_type": "in vivo, rat", "conditions": "for Δ^13C value at 10 minutes after the administration / Δ^13C value at 20 minutes after the administration: group value n=4, 250 mg/kg orally; for Δ^13C value at 30 minutes after the administration: group value n=4, 30 mg/kg orally; for Δ^13C (mean) value at 15 minutes after the administration: mean n=2, 420 mg/kg orally", "method": "[…] The rat of 9 weeks old was fixed without anesthesia in a rat holder for a microwave irradiation apparatus. The breath was collected at a rate of about 100 to 300 ml/min using a stroke pump (Variable Stroke Pump VS-500, Shibata Kagaku Kogyo) and introduced directly to a flow cell of a ^13CO2 analyzer EX-130S (Nihon Bunko). A Perma Pure drier (MD-050-12P, Perma Pure INC.) was set between the rat holder and stroke pump to remove out water vapor in the breath. CO2 concentration was stabilized, the rat was once removed out of the rat holder and Bz-DL-Phe-(^13C-Leu).Na dissolved in distilled water was administered into the stomach using an oral sonde.\nOutput data from the ^13CO2 analyzer were AD converted and put into a personal computer (Apple Power Macintosh 8500). Using a data processing soft ware Lab VIEW (National Instruments), 10 data points at every 100 msec were integrated and averaged in an interval of 5 seconds and converted to ^13C atom %, Δ^13C (‰), and CO2 concentration (%). In this manner, the ^13C breath test was continuously carried out. […] CO2 concentration in the collected breath was held at 3 ± 0.5%.\nΔ^13C (%o) was calculated from the ^13C concentration in the exhaled CO2 at each time point (^13C tmin) and the ^13C concentration in standard CO2 (^13C std) according to the following equation: Δ^13 (C (‰) - [()^13 (C tmin -)^13 (C 0min)/)^13 C std] x 1000 [formula]"}, "[2]": {"tested_on": "pancreatic exocrine function", "assay": "PFD test: oral BT-PABA, PABA excretion rate in urine", "assay_type": "in vivo, rat", "conditions": "specificity 100%", "method": "The rats of the model of chronic pancreatitis and control rats, which were kept for 3 to 4 weeks after the operation, were made to fast from 9:00 AM. At 4:00 PM, 3 mg/ml of BT-PABA (PFD solution for internal use, Eisai) was orally administered in an amount of 15 mg/kg. Urine was collected for 16 hours until 9:00 AM of the next day. The amount of the collected urine and the PABA concentration in the urine were determined using a PABA measuring kit to determine the excretion rate in urine (PFD test)."}, "chymotrypsin": {"tested_on": "chymotrypsin", "assay": "Degradation by chymotrypsin, released leucine determined by ninhydrin reaction", "assay_type": "biochemical, bovine", "conditions": "23 mM substrate, 0.16 mg/ml chymotrypsin, 20 mM HEPPS-Na pH 8.0, 37°C, 15 minutes", "method": "Bz-DL-Phe-(^13C-Leu) was reacted with chymotrypsin and the degradation product, leucine, generated upon action of chymotrypsin was quantitatively determined by ninhydrin reaction. The reaction was carried out in 20 mM HEPPS-Na (pH 8.0), 23 mM Bz-DL-Phe- (^13C-Leu), 0.16 mg/ml chymotrypsin (from bovine pancreas, Worthington Biochemical Corporation, #1432, Lot 37A906) at 37°C for 15 minutes. After reaction, 50 µl of citrate buffer (citric acid monohydrate), 20 µl of ninhydrin solution (50 mg/ml solution in methyl cellosolve) and 100 µl of KCN solution (0.01 M aqueous KCN solution diluted 50 times with methyl cellosolve) were added to 100 µl of the reaction mixture and heated at 100°C for 15 minutes. After cooling the ninhydrin reaction mixture to room temperature, 150 µl of 60% (V/V) ethanol was added to 100 µl of the ninhydrin reaction mixture and stirred followed by determination of an absorbance at a wave length of 570 nm. An experiment wherein all the reactions that were carried out without adding Bz-DL-Phe-(^13C-Leu) was taken as a \"blank,\" and leucine was used as a standard."}, "[3]": {"conditions": "individual chronic pancreatitis rats #1-#4, sodium salt 250 mg/kg orally"}, "[4]": {"conditions": "individual normal rats #1-#4, sodium salt 250 mg/kg orally"}}, "note": "“And” between values parts separate entries of the source, which are not always exact repeats. Identical values can stand only once.", "data": [{"molecule": "Bz-L-Phe-(^13C-Leu).Na", "values": [{"measurement": "Δ^13C value at 10 minutes after the administration", "setting": "[1]; chronic pancreatitis rats", "value": "6.97 ± 6.09", "unit": "%o"}, {"measurement": "Δ^13C value at 10 minutes after the administration", "setting": "[1]; normal rats", "value": "115.02 ± 71.26", "unit": "%o"}]}, {"molecule": "Bz-Tyr-(^13C-Leu).Na", "values": [{"measurement": "Δ^13C value at 20 minutes after the administration", "setting": "[1]; chronic pancreatitis rats", "value": "3.66 ± 3.24", "unit": "%o"}, {"measurement": "Δ^13C value at 20 minutes after the administration", "setting": "[1]; normal rats", "value": "69.53 ± 32.50", "unit": "%o"}]}, {"molecule": "Bz-L-Phe-(^13C-Leu)", "values": [{"measurement": "Δ^13C (%o) at 10 min", "setting": "[1]; [3]", "value": "1.61 %o and 3.28 %o and 17.21 %o and 5.77 %o"}, {"measurement": "Δ^13C (%o) at 10 min", "setting": "[1]; [4]", "value": "31.29 %o and 60.25 %o and 165.37 %o and 203.16 %o"}]}, {"molecule": "Bz-DL-Phe-(^13C-Leu).Na", "values": [{"measurement": "sensitivity", "setting": "[1]; 250 mg/kg orally, Δ^13C at 10 minutes as check value, cut off set for specificity 100%, chronic pancreatitis n=8, control n=4", "value": 100, "unit": "%"}, {"measurement": "Δ^13C (‰) values at 10 minutes after the administration", "setting": "[1]; chronic pancreatitis rats (n=8) compared with control rats (n=4), 250 mg/kg orally", "value": "smaller than the smallest value of Δ ^13C (‰) for the control rats"}]}, {"molecule": "Arg-(^13C-Leu)", "values": [{"measurement": "Δ^13C value at 30 minutes after the administration", "setting": "[1]; chronic pancreatitis rats", "value": "4.37 ± 1.83", "unit": "%o"}, {"measurement": "Δ^13C (%o) at 30 min", "setting": "[1]; individual chronic pancreatitis rats #1-#4, 30 mg/kg orally", "value": "3.74 %o and 6.97 %o and 4.87 %o and 1.92 %o"}, {"measurement": "Δ^13C (%o) at 30 min", "setting": "[1]; individual normal rats #1-#4, 30 mg/kg orally", "value": "10.30 %o and 13.74 %o and 15.37 %o and 10.08 %o"}, {"measurement": "Δ^13C value at 30 minutes after the administration", "setting": "[1]; normal rats", "value": "12.37 ± 2.26", "unit": "%o"}]}, {"molecule": "Bz-Ala-Ala-Ala-Ala-(^13C-Gly)-Phe-Leu.Na", "values": [{"measurement": "Δ^13C (mean) value at 15 minutes after the administration", "setting": "[1]; chronic pancreatitis rats", "value": 0.61, "unit": "%o"}, {"measurement": "Δ^13C (mean) value at 15 minutes after the administration", "setting": "[1]; normal rats", "value": 33.32, "unit": "%o"}]}, {"molecule": "Bz-Tyr-(^13C-Leu)", "values": [{"measurement": "Δ^13C (%o) at 20 min", "setting": "[1]; [3]", "value": "8.76 %o and 3.58 %o and 2.44 %o and -0.15 %o"}, {"measurement": "Δ^13C (%o) at 20 min", "setting": "[1]; [4]", "value": "111.32 %o and 65.76 %o and 21.02 %o and 80.02 %o"}]}, {"molecule": "O=C(O)c1ccc(NC(=O)[C@H](Cc2ccc(O)cc2)NC(=O)c2ccccc2)cc1", "note": "[PFD, N-benzoyl-L-tyrosyl-p-aminobenzoic acid]", "values": [{"measurement": "sensitivity in the PFD test", "setting": "[2]; 15 mg/kg orally, same group of rats as the Bz-DL-Phe-(^13C-Leu) breath test (n=8 / n=4)", "value": 50, "unit": "%"}, {"measurement": "sensitivity in the PFD test", "setting": "[2]; same group of rats as the Bz-Ala-(^13C-Ala) breath test (n=8 / n=7)", "value": 63, "unit": "%"}, {"measurement": "sensitivity in the PFD test", "setting": "[2]; same group of rats as the Bz-Gly-(^13C-Leu) breath test (n=10 / n=10)", "value": 50, "unit": "%"}]}, {"molecule": "Bz-Gly-(^13C-Leu)-Na", "values": [{"measurement": "sensitivity", "setting": "[1]; 50 mg/kg orally, Δ^13C at 18 minutes as check value, specificity 100%, chronic pancreatitis n=10, normal n=10", "value": 80, "unit": "%"}]}, {"molecule": "Bz-DL-Phe-(^13C-Leu)", "values": [{"measurement": "rate of degradation", "setting": "chymotrypsin", "value": 1.72, "unit": "nmole/mg chymotrypsin/min"}]}, {"molecule": "Bz-Ala-Ala-Ala-Ala-(^13C-Gly)-Phe-Leu", "values": [{"measurement": "Δ^13C (%o) at 15 min", "setting": "[1]; individual chronic pancreatitis rats #1-#2, sodium salt 420 mg/kg orally", "value": "-1.90 %o and 3.12 %o"}, {"measurement": "Δ^13C (%o) at 15 min", "setting": "[1]; individual normal rats #1-#2, sodium salt 420 mg/kg orally", "value": "23.47 %o and 43.16 %o"}]}]}
